This note sets out measurements from patent publication US20240409585A1, “MACROCYCLIC IMMUNOMODULATORS” (priority 2021, published 2024).

As a reminder, the IC50 is the concentration that gives 50% inhibition.

Structures are written as SMILES. Bridge positions count the residues as written; N and C are the ends. Square brackets hold non-standard residues; d marks the D form. Peptide text beside a SMILES is read from it. * marks the point of attachment. ξ: configuration not given here. Phe(4-COOH) = N[C@@H](Cc1ccc(C(=O)O)cc1)C(=O)O; Bip = N[C@@H](Cc1ccc(-c2ccccc2)cc1)C(=O)O; Phe(3-Me) = Cc1cccc(C[C@H](N)C(=O)O)c1; Val(3-OH) = CC(C)(O)[C@H](N)C(=O)O; aIle = CC[C@@H](C)[C@H](N)C(=O)O; 3Pal = N[C@@H](Cc1cccnc1)C(=O)O; 4Pal = N[C@@H](Cc1ccncc1)C(=O)O; 3Thi = N[C@@H](Cc1ccsc1)C(=O)O; Cha = N[C@@H](CC1CCCCC1)C(=O)O; Cit = NC(=O)NCCC[C@H](N)C(=O)O; Ile(3ξ) = CCC(C)[C@H](N)C(=O)O; NMeD = CN[C@@H](CC(=O)O)C(=O)O; NMeL = CN[C@@H](CC(C)C)C(=O)O; Thr(3ξ) = CC(O)[C@H](N)C(=O)O; Carboxymethyl = O=C(O)C*; NMeA = CN[C@@H](C)C(=O)O; Dab = NCC[C@H](N)C(=O)O; Dap = NC[C@H](N)C(=O)O; NH(CH2)3NH2 = NCCCN*; ξV = CC(C)C(N)C(=O)O

The target of the first assay is T1, PE-labeled human PD-L1-Ig binding to Jurkat cell line over-expressing human PD-1 (Jurkat-PD-1) (Homo sapiens, UniProt Q15116).
T1 construct: expressed in transfected cells; host or cells: Jurkat
T1 sequence (Q15116 25-288): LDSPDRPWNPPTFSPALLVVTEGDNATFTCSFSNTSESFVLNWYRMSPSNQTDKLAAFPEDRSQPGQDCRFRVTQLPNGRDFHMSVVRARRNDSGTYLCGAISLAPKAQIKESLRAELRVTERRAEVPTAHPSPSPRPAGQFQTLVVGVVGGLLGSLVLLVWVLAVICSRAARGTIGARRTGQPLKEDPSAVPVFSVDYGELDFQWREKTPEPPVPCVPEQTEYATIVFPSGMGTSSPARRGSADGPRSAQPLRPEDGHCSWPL
Kind of assay: Jurkat-PD-1 Cell Binding High-Content Screening Assay (CBA): Method 1. The settings on record: Jurkat HPDL1 PD1 IC50 (uM) (Method 1), Jurkat-hPD-1 cells, PE-labeled PD-L1-Ig 20 nM final.
In turn, `Cc1cccc(C[C@@H]2NC(=O)[C@H](CC(=O)O)NC(=O)[C@H](Cc3ccc(OCC(=O)O)cc3)NC(=O)[C@H](Cc3ccncc3)NC(=O)CSC[C@@H](C(=O)N[C@@H](C)C(N)=O)NC(=O)[C@H](CO)NC(=O)[C@H](Cc3ccccc3)NC(=O)[C@H](CC(C)C)NC(=O)[C@H](CC(N)=O)NC(=O)[C@@H](CC(C)C)NC(=O)[C@H](C)N(C)C(=O)[C@H](Cc3ccccc3)NC(=O)[C@H](Cc3ccc(-c4ccccc4)cc3)NC(=O)[C@H](CC(C)C)NC2=O)c1` [Compound 1588] ({CH2CO}-[4Pal]Y(Carboxymethyl)D[Phe(3-Me)]L[Bip]F[NMeA][dL]NLFSCA-NH2; thioether N-14) showed an IC50 of 0.32 µM.

Still in this assay, the particulars now being: Jurkat-hPD-1 cells, PE-labeled PD-L1-Ig 20 nM final; read-out: Jurkat HPDL1 PD1 IC50 (uM) (Method 1).
On to `CC(C)C[C@H]1NC(=O)[C@H](C)N(C)C(=O)[C@H](CCCNC(=N)N)NC(=O)[C@H](Cc2ccc(-c3ccccc3)cc2)NC(=O)[C@H](C(C)C)NC(=O)[C@H](Cc2c[nH]c3ccccc23)NC(=O)[C@H](CC(=O)O)NC(=O)[C@H](Cc2ccc(O)cc2)NC(=O)[C@H](Cc2ccccc2)NC(=O)CSC[C@@H](C(=O)N[C@@H](C)C(N)=O)NC(=O)[C@H]([C@@H](C)O)NC(=O)[C@H](C(C)C)NC(=O)[C@H](CC(C)C)N(C)C(=O)[C@H](CCCNC(=N)N)NC1=O` [Compound 1117] ({CH2CO}-FYDWV[Bip]R[NMeA][dL]R[NMeL]VTCA-NH2; thioether N-14), for which the IC50 is 0.36 µM.
As to `Cc1cccc(C[C@@H]2NC(=O)[C@H](CC(=O)O)NC(=O)[C@H](Cc3ccc(OCC(=O)O)cc3)NC(=O)[C@H](CN)NC(=O)CSC[C@@H](C(=O)N[C@@H](C)C(N)=O)NC(=O)[C@H](CO)NC(=O)[C@H](C(C)C)NC(=O)[C@H](CC(C)C)NC(=O)[C@H](CC(N)=O)NC(=O)[C@@H](C)NC(=O)[C@H](C)N(C)C(=O)[C@H](C(C)C)NC(=O)[C@H](Cc3ccc(-c4ccccc4)cc3)NC(=O)[C@H](CC(C)C)NC2=O)c1` [Compound 1582] ({CH2CO}-[Dap]Y(Carboxymethyl)D[Phe(3-Me)]L[Bip]V[NMeA][dA]NLVSCA-NH2; thioether N-14), the half-inhibitory concentration (IC50) amounted to 0.02 µM.
As to `Cc1cccc(C[C@@H]2NC(=O)[C@H](CC(=O)O)NC(=O)[C@H](Cc3ccncc3)NC(=O)[C@H](Cc3ccc(OCC(=O)O)cc3)NC(=O)CSC[C@@H](C(N)=O)NC(=O)[C@H](CO)NC(=O)[C@H](C(C)C)NC(=O)[C@H](CC(C)C)NC(=O)[C@H](CC(N)=O)NC(=O)[C@@H](CC(C)C)NC(=O)[C@H](C)N(C)C(=O)[C@H](CCCNC(N)=O)NC(=O)[C@H](Cc3ccc(-c4ccccc4)cc3)NC(=O)[C@H](CC(C)C)NC2=O)c1` [Compound 1642] ({CH2CO}-Y(Carboxymethyl)[4Pal]D[Phe(3-Me)]L[Bip][Cit][NMeA][dL]NLVSC-NH2; thioether N-14), the half-inhibitory concentration (IC50) turned out to be 0.18 µM.
Consider `CC(=O)NCCCC[C@@H]1NC(=O)[C@H](C(C)C)NC(=O)[C@H](CC2CCCCC2)NC(=O)[C@H](CCN)NC(=O)[C@@H](CC(C)C)NC(=O)[C@H](C)N(C)C(=O)[C@H](CCC(N)=O)NC(=O)[C@H](Cc2ccc(-c3ccccc3)cc2)NC(=O)[C@H](C(C)C)NC(=O)[C@H](Cc2cccc(C)c2)NC(=O)[C@H](CC(=O)O)NC(=O)[C@H](Cc2ccc(OCC(=O)O)cc2)NC(=O)[C@H](Cc2ccc(OCC(=O)O)cc2)NC(=O)CSC[C@@H](C(=O)NCCCN)NC1=O` [Compound 2265] ({CH2CO}-Y(Carboxymethyl)Y(Carboxymethyl)D[Phe(3-Me)]V[Bip]Q[NMeA][dL][Dab][Cha]VK(Ac)C-{NH(CH2)3NH2}; thioether N-14), for which the 50% inhibitory concentration (IC50) was 0.02 µM.
On the same count and under the same terms, for `CC(C)C[C@H]1NC(=O)[C@H](C)N(C)C(=O)[C@H](C(C)C)NC(=O)[C@H](Cc2ccc(-c3ccccc3)cc2)NC(=O)[C@H](C(C)C)NC(=O)[C@H](Cc2c[nH]c3ccccc23)NC(=O)[C@H](CC(=O)O)NC(=O)[C@H](Cc2ccc(O)cc2)NC(=O)[C@H](CC(N)=O)NC(=O)CSC[C@@H](C(=O)N[C@@H](C)C(N)=O)NC(=O)[C@H]([C@@H](C)O)NC(=O)[C@H](C(C)C)NC(=O)[C@H](CC2CCCCC2)NC(=O)[C@H](CCN)NC1=O` [Compound 1296] ({CH2CO}-NYDWV[Bip]V[NMeA][dL][Dab][Cha]VTCA-NH2; thioether N-14) the value was 0.01 µM; for `CC(C)C[C@@H]1NC(=O)[C@H](C(C)C)NC(=O)[C@H](Cc2ccccc2)NC(=O)[C@H](CC(=O)O)N(C)C(=O)[C@H](CCCNC(=N)N)NC(=O)[C@H](Cc2ccc(-c3ccccc3)cc2)NC(=O)[C@H](C(C)C)NC(=O)[C@H](Cc2c[nH]c3ccccc23)NC(=O)[C@H](CC(=O)O)NC(=O)[C@H](Cc2ccc(O)cc2)NC(=O)[C@H](Cc2ccccc2)NC(=O)CSC[C@@H](C(=O)NCC(N)=O)NC(=O)[C@H](CO)NC(=O)[C@H](C(C)C)NC1=O` [Compound 1008] ({CH2CO}-FYDWV[Bip]R[NMeD]FVLVSCG-NH2; thioether N-14), 0.7 µM.
As for `CC(C)C[C@@H]1NC(=O)[C@H](C)NC(=O)[C@@H](C)NC(=O)[C@H](C)N(C)C(=O)[C@H](CCC(=O)O)NC(=O)[C@H](Cc2ccc(-c3ccccc3)cc2)NC(=O)[C@H](CC(C)C)NC(=O)[C@H](Cc2c[nH]c3ccccc23)NC(=O)[C@H](CC(=O)O)NC(=O)[C@H](Cc2ccc(C(=O)O)cc2)NC(=O)[C@H](Cc2cccnc2)NC(=O)CSC[C@@H](C(=O)N[C@@H](C)C(N)=O)NC(=O)[C@H](CO)NC(=O)[C@H](C(C)C)NC1=O` [Compound 1786] ({CH2CO}-[3Pal][Phe(4-COOH)]DWL[Bip]E[NMeA][dA]ALVSCA-NH2; thioether N-14), the half-maximal inhibitory concentration (IC50) was 0.1 µM.
In the case of `CC(C)C[C@H]1NC(=O)[C@H](C)N(C)C(=O)[C@H](CCCNC(=N)N)NC(=O)[C@H](Cc2ccc(-c3ccccc3)cc2)NC(=O)[C@H](C(C)C)NC(=O)[C@H](Cc2c[nH]c3ccccc23)NC(=O)[C@H](CC(=O)O)NC(=O)[C@H](Cc2ccc(O)cc2)NC(=O)[C@H](CC(N)=O)NC(=O)CSC[C@@H](C(=O)N[C@@H](C)C(N)=O)NC(=O)[C@H]([C@@H](C)O)NC(=O)[C@H](C(C)C)NC(=O)[C@H](CC2CCCCC2)NC(=O)[C@H](CCCNC(=N)N)NC1=O` [Compound 1275] ({CH2CO}-NYDWV[Bip]R[NMeA][dL]R[Cha]VTCA-NH2; thioether N-14), the half-maximal inhibitory concentration (IC50) was determined as 0.03 µM.
For the compound `CC[C@@H](C)[C@@H]1NC(=O)[C@H](Cc2ccc(-c3ccccc3)cc2)NC(=O)[C@H](CC(C)C)NC(=O)[C@H](Cc2c[nH]c3ccccc23)NC(=O)[C@H](CC(=O)O)NC(=O)[C@H](Cc2ccc(C(=O)O)cc2)NC(=O)[C@H](Cc2ccc(OCC(=O)O)cc2)NC(=O)CSC[C@@H](C(=O)N[C@@H](CCCCN)C(N)=O)NC(=O)[C@H](CC(N)=O)NC(=O)C(C(C)C)NC(=O)[C@H](CC(C)C)NC(=O)[C@H](CC(N)=O)NC(=O)[C@@H](CC(C)C)NC(=O)[C@H](C)N(C)C1=O` (stereo partly drawn) [Compound 2109] ({CH2CO}-Y(Carboxymethyl)[Phe(4-COOH)]DWL[Bip][aIle][NMeA][dL]NL[ξV]NCK-NH2; thioether N-14), the IC50 stood at 0.2 µM.
For the compound `CC(=O)NCCCC[C@@H]1NC(=O)[C@H](C(C)C)NC(=O)[C@H](CC2CCCCC2)NC(=O)[C@H](CCN)NC(=O)[C@@H](CC(C)C)NC(=O)[C@H](C)N(C)C(=O)[C@H](CCC(N)=O)NC(=O)[C@H](Cc2ccc(-c3ccccc3)cc2)NC(=O)[C@H](C(C)C)NC(=O)[C@H](Cc2c[nH]c3ccccc23)NC(=O)[C@H](CC(=O)O)NC(=O)[C@H](Cc2ccc(OCC(=O)O)cc2)NC(=O)[C@H](Cc2ccsc2)NC(=O)CSC[C@@H](C(=O)N[C@@H](CCN)C(N)=O)NC1=O` [Compound 2127] ({CH2CO}-[3Thi]Y(Carboxymethyl)DWV[Bip]Q[NMeA][dL][Dab][Cha]VK(Ac)C[Dab]-NH2; thioether N-14), the half-inhibitory concentration (IC50) is 0.01 µM.
Still for that read-out and setting: the same measure for `CCC(C)[C@@H]1NC(=O)[C@H](Cc2ccc(-c3ccccc3)cc2)NC(=O)[C@H](C(C)C)NC(=O)[C@H](Cc2c[nH]c3ccccc23)NC(=O)[C@H](CC(=O)O)NC(=O)[C@H](Cc2ccc(O)cc2)NC(=O)[C@H](Cc2ccncc2)NC(=O)CSC[C@@H](C(=O)N[C@@H](C)C(N)=O)NC(=O)[C@H](C(C)O)NC(=O)[C@H](CCN)NC(=O)[C@H](CC(C)C)NC(=O)[C@H](CC(N)=O)NC(=O)[C@@H](CC(C)C)NC(=O)[C@H](C)N(C)C1=O` (stereo partly drawn) [Compound 2060] ({CH2CO}-[4Pal]YDWV[Bip][Ile(3ξ)][NMeA][dL]NL[Dab][Thr(3ξ)]CA-NH2; thioether N-14): 0.28 µM; for `Cc1cccc(C[C@@H]2NC(=O)[C@H](CC(=O)O)NC(=O)[C@H](Cc3ccc(C(=O)O)cc3)NC(=O)[C@H](Cc3ccsc3)NC(=O)CSC[C@@H](C(=O)N[C@@H](CCN)C(N)=O)NC(=O)[C@H](CO)NC(=O)[C@H](C(C)(C)O)NC(=O)[C@H](CC3CCCCC3)NC(=O)[C@H](CCN)NC(=O)[C@@H](CC(C)C)NC(=O)[C@H](C)N(C)C(=O)[C@H](Cc3ccc(OCC(=O)O)cc3)NC(=O)[C@H](Cc3ccc(-c4ccccc4)cc3)NC(=O)[C@H](Cc3ccc(OCC(=O)O)cc3)NC2=O)c1` [Compound 2133] ({CH2CO}-[3Thi][Phe(4-COOH)]D[Phe(3-Me)]Y(Carboxymethyl)[Bip]Y(Carboxymethyl)[NMeA][dL][Dab][Cha][Val(3-OH)]SC[Dab]-NH2; thioether N-14): 0.01 µM; for `CC(C)C[C@@H]1NC(=O)[C@H](CCCNC(=N)N)NC(=O)[C@@H]([C@H](C)O)NC(=O)[C@H](C)N(C)C(=O)[C@H](CCCNC(=N)N)NC(=O)[C@H](Cc2ccc(-c3ccccc3)cc2)NC(=O)[C@H](C(C)C)NC(=O)[C@H](Cc2c[nH]c3ccccc23)NC(=O)[C@H](CC(=O)O)NC(=O)[C@H](Cc2ccc(O)cc2)NC(=O)[C@H](Cc2ccccc2)NC(=O)CSC[C@@H](C(=O)N[C@@H](C)C(N)=O)NC(=O)[C@H]([C@@H](C)O)NC(=O)[C@H](C(C)C)NC1=O` [Compound 1058] ({CH2CO}-FYDWV[Bip]R[NMeA][dT]RLVTCA-NH2; thioether N-14): 0.91 µM.
